The text below walks through data of patent US8148373B2, “Compounds” (AstraZeneca AB, priority 2008, dated 2012).

The target of experiment [1] is T1, Adrenergic β2 (H292 cells) (Homo sapiens, UniProt P07550).
T1 construct: endogenous in cells; host or cells: H292 cells
Nature of the experiment: Assay for Adrenergic β2 Mediated cAMP Production (concentration response, AlphaScreen cAMP detection). It is filed as cell-based. As to conditions: for EC50: cAMP production, 60 minutes at room temperature, 300 μM rolipram, read-out: β2 pEC50 (converted); for β2 Intrinsic activity: fraction relative to the maximum activity determined for formoterol. Put shortly: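 H292 cells plated overnight, pre-treated with rolipram (300 μM final) 10 min, then compound 60 min at room temperature in HBSS/10 mM HEPES pH7.4/5 mM glucose, 1% DMSO. Lysate cAMP read by AlphaScreen against a cAMP standard curve; 4-parameter fit gives pEC50 and intrinsic activity as fraction of formoterol maximum.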

The target of experiment [2] is T2, human muscarinic acetylcholine M3 receptor (M3-ACh) (Homo sapiens, UniProt P20309).
T2 construct: expressed in transfected cells; host or cells: CHO-K1 (Chinese Hamster Ovary) cell membranes
Nature of the experiment: Muscarinic 3 Receptor Binding Assay ([3H]NMS competition, SPA). Particulars: [3H]NMS 0.1 nM, CHO-K1 cell membranes, 16 hours at room temperature; read-out: M3 pIC50 (converted). Put shortly: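 Competition SPA binding of 0.1 nM [3H]NMS (quarter Kd) to membranes from CHO-K1 cells expressing human M3, in 20 mM HEPES pH 7.4, 5 mM MgCl2, 1% DMSO. Incubated 16 h at room temperature; non-specific binding with 1 µM atropine. pIC50 from 50% reduction of specific binding.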

Experiment [3] deals with T1, Adrenergic β2 (H292 cells). The experiment is described as follows: Adrenergic β2 Mediated cAMP Production, single concentration 1 μM. As to conditions: NCI-H292, 1 μM compound, percentage of the maximum response generated by 1E-07M formoterol, read-out: β2 (% effect at 1 μM). It is filed as cell-based. Put shortly: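 H292 cells were plated overnight, pre-treated with 300 μM rolipram for 10 min, then exposed to compound at 1 μM final (1% DMSO) for 60 min at room temperature. cAMP in the lysates was measured by AlphaScreen against a standard curve and expressed as % of the maximal response to 1E-07M formoterol.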

Experiment [4] deals with T2, human muscarinic acetylcholine M3 receptor (M3-ACh). Nature of the experiment: Muscarinic 3 Receptor Binding Assay, % inhibition specific binding at 1 μM. Particulars: 1 μM compound, % inhibition specific [3H]-NMS binding. Put shortly: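 Competition binding of 0.1 nM [3H]NMS to membranes from CHO-K1 cells expressing human M3, SPA format, with compound at 1 μM in 20 mM HEPES pH 7.4, 5 mM MgCl2, 1% DMSO. Incubated 16 h at room temperature; non-specific binding defined by 1 μM atropine; value is % inhibition of specific binding.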

Molecules are shown by their SMILES.

T1 sequence (P07550 whole entry): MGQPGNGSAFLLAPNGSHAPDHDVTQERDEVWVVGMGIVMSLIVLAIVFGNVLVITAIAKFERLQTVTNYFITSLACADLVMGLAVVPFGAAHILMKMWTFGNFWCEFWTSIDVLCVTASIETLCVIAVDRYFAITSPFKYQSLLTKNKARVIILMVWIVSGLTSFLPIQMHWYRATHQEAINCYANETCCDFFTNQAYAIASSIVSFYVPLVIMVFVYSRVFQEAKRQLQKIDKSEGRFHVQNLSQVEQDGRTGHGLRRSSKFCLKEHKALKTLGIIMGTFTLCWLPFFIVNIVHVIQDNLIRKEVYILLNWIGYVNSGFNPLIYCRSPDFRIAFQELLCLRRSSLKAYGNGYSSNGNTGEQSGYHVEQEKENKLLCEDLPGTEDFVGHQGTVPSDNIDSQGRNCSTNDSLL
T2 sequence (P20309 whole entry): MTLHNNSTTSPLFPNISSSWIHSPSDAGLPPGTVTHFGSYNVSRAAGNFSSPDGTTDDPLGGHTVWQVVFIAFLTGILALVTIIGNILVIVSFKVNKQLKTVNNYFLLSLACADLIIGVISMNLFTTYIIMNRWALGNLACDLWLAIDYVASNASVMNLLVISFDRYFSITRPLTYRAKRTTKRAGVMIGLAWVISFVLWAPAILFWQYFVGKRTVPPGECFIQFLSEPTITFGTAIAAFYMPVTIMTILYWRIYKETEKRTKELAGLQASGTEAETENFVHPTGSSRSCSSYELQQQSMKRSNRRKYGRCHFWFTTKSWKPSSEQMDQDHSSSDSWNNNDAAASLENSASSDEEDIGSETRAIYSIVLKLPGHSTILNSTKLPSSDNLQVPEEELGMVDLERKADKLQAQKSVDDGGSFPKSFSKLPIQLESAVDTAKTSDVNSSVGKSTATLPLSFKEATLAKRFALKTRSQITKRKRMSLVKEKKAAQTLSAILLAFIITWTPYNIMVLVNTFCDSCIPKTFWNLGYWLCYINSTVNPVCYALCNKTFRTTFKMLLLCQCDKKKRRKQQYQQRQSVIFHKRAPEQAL

Broadly, the inhibition is the relative decrease from the control value, in per cent. A low value points to little suppression. For `Cc1ccc(C(=O)N2CCOC3(CCN(Cc4cc(F)cc(CCNC[C@H](O)c5ccc(O)c6[nH]c(=O)sc56)c4)CC3)C2)s1` [Example 118, (R)-7-(2-(3-fluoro-5-((4-(5-methylthiophene-2-carbonyl)-1-oxa-4,9-diazaspiro[5.5]undecan-9-yl)methyl)phenethylamino)-1-hydroxyethyl)-4-hydroxybenzo[d]thiazol-2(3H)-one], in experiment [1], the EC50 was 6.31 nM and the “β2 Intrinsic activity” value is on record as 1. In addition, the IC50 in experiment [2] was 20 nM. Further, the activation at 1 µM in experiment [3] was 101%. The same compound gave an inhibition at 1 µM in experiment [4] of 95%.

Turning to `O=C(c1ccc(Cl)s1)N1CCOC2(CCN(Cc3cc(F)cc(CCNC[C@H](O)c4ccc(O)c5[nH]c(=O)sc45)c3)CC2)C1` [Example 124, (R)-7-(2-(3-((4-(5-chlorothiophene-2-carbonyl)-1-oxa-4,9-diazaspiro[5.5]undecan-9-yl)methyl)-5-fluorophenethylamino)-1-hydroxyethyl)-4-hydroxybenzo[d]thiazol-2(3H)-one], in experiment [1], the EC50 is 3.98 nM and the “β2 Intrinsic activity” value is 0.9. The IC50 in experiment [2] is 12.6 nM. Also, the activation at 1 µM in experiment [3] amounted to 100%. This compound returned an inhibition at 1 µM in experiment [4] of 97%.

`CC(C)(C)CC(=O)N1CCOC2(CCN(Cc3cc(F)cc(CCNC[C@H](O)c4ccc(O)c5[nH]c(=O)sc45)c3)CC2)C1` [Example 130, (R)-7-(2-(3-((4-(3,3-dimethylbutanoyl)-1-oxa-4,9-diazaspiro[5.5]undecan-9-yl)methyl)-5-fluorophenethylamino)-1-hydroxyethyl)-4-hydroxybenzo[d]thiazol-2(3H)-one]: in experiment [1], the EC50 was 12.6 nM and the “β2 Intrinsic activity” value is recorded as 1. Also, the IC50 in experiment [2] is 79.4 nM. The activation at 1 µM in experiment [3] turned out to be 109%. In experiment [4], this compound yielded an inhibition at 1 µM of 90%.

Consider `O=C(c1cccc2cc[nH]c12)N1CCOC2(CCN(Cc3cc(F)cc(CCNC[C@H](O)c4ccc(O)c5[nH]c(=O)sc45)c3)CC2)C1` [Example 141, (R)-7-(2-(3-((4-(1H-indole-7-carbonyl)-1-oxa-4,9-diazaspiro[5.5]undecan-9-yl)methyl)-5-fluorophenethylamino)-1-hydroxyethyl)-4-hydroxybenzo[d]thiazol-2(3H)-one], for which, in experiment [1], the EC50 was 6.31 nM and the “β2 Intrinsic activity” value is reported as 0.9. Moreover, in experiment [2], the IC50 was 25.1 nM. Moreover, in experiment [3], the activation at 1 µM stood at 105%. In experiment [4], this compound returned an inhibition at 1 µM of 91%.

Regarding `O=C(c1ccc2c(c1)CCO2)N1CCOC2(CCN(Cc3cc(F)cc(CCNC[C@H](O)c4ccc(O)c5[nH]c(=O)sc45)c3)CC2)C1` [Example 149, (R)-7-(2-(3-((4-(2,3-dihydrobenzofuran-5-carbonyl)-1-oxa-4,9-diazaspiro[5.5]undecan-9-yl)methyl)-5-fluorophenethylamino)-1-hydroxyethyl)-4-hydroxybenzo[d]thiazol-2(3H)-one], in experiment [1], the EC50 was 7.94 nM and the “β2 Intrinsic activity” value is listed as 0.9. Moreover, in experiment [2], the IC50 is 25.1 nM. Also, the activation at 1 µM in experiment [3] was 113%. This compound returned an inhibition at 1 µM in experiment [4] of 92%.

In the case of `O=C(c1ccc2occc2c1)N1CCOC2(CCN(Cc3cc(F)cc(CCNC[C@H](O)c4ccc(O)c5[nH]c(=O)sc45)c3)CC2)C1` [Example 173, (R)-7-(2-(3-((4-(benzofuran-5-carbonyl)-1-oxa-4,9-diazaspiro[5.5]undecan-9-yl)methyl)-5-fluorophenethylamino)-1-hydroxyethyl)-4-hydroxybenzo[d]thiazol-2(3H)-one], in experiment [1], the EC50 was 2.51 nM and the “β2 Intrinsic activity” value was 0.8. For the same compound, the IC50 in experiment [2] was 7.94 nM. Besides, the activation at 1 µM in experiment [3] came to 93%. The compound also showed an inhibition at 1 µM in experiment [4] of 99%.

Turning to `O=C(c1ccc2cccnc2c1)N1CCOC2(CCN(Cc3cc(F)cc(CCNC[C@H](O)c4ccc(O)c5[nH]c(=O)sc45)c3)CC2)C1` [Example 178, (R)-7-(2-(3-fluoro-5-((4-(quinoline-7-carbonyl)-1-oxa-4,9-diazaspiro[5.5]undecan-9-yl)methyl)phenethylamino)-1-hydroxyethyl)-4-hydroxybenzo[d]thiazol-2(3H)-one], in experiment [1], the EC50 is 5.01 nM and the “β2 Intrinsic activity” value is listed as 0.8. Also, the IC50 in experiment [2] is 31.6 nM. Further, in experiment [3], the activation at 1 µM came to 94%. Further, testing at 1 µM in experiment [4] gave an inhibition of 89%.

Take `O=C(c1ccc(Cl)s1)N1CCOC2(CCN(CCCCCCCCCNC[C@H](O)c3ccc(O)c4[nH]c(=O)sc34)CC2)C1` [Example 190, (R)-7-(2-(9-(4-(5-chlorothiophene-2-carbonyl)-1-oxa-4,9-diazaspiro[5.5]undecan-9-yl)nonylamino)-1-hydroxyethyl)-4-hydroxybenzo[d]thiazol-2(3H)-one]: in experiment [1], the EC50 is 12.6 nM and the “β2 Intrinsic activity” value came to 0.9. In addition, the IC50 in experiment [2] was 2 nM. For the same compound, the activation at 1 µM in experiment [3] was found to be 77%. Also, the inhibition at 1 µM in experiment [4] was 99%.

As for `Cc1ccc(C(=O)N2CCOC3(CCN(CCCCCCCCCNC[C@H](O)c4ccc(O)c5[nH]c(=O)sc45)CC3)C2)o1` [Example 198, (R)-4-hydroxy-7-(1-hydroxy-2-(9-(4-(5-methylfuran-2-carbonyl)-1-oxa-4,9-diazaspiro[5.5]undecan-9-yl)nonylamino)ethyl)benzo[d]thiazol-2(3H)-one], in experiment [1], the EC50 is 12.6 nM and the “β2 Intrinsic activity” value is on record as 0.8. The IC50 in experiment [2] was 3.16 nM. The activation at 1 µM in experiment [3] turned out to be 82%. This compound also gave an inhibition at 1 µM in experiment [4] of 99%.

For `Cc1nc(C(=O)N2CCOC3(CCN(CCCCCCCCCNC[C@H](O)c4ccc(O)c5[nH]c(=O)sc45)CC3)C2)c(C)s1` [Example 201, (R)-7-(2-(9-(4-(2,5-dimethylthiazole-4-carbonyl)-1-oxa-4,9-diazaspiro[5.5]undecan-9-yl)nonylamino)-1-hydroxyethyl)-4-hydroxybenzo[d]thiazol-2(3H)-one], in experiment [1], the EC50 was 31.6 nM and the “β2 Intrinsic activity” value is reported as 0.9. Besides, the IC50 in experiment [2] is 6.31 nM. For the same compound, the activation at 1 µM in experiment [3] is 105%. This compound had an inhibition at 1 µM in experiment [4] of 98%.

`Cc1cc(C(=O)N2CCOC3(CCN(CCCCCCCCCNC[C@H](O)c4ccc(O)c5[nH]c(=O)sc45)CC3)C2)c(C)s1` [Example 202, (R)-7-(2-(9-(4-(2,5-dimethylthiophene-3-carbonyl)-1-oxa-4,9-diazaspiro[5.5]undecan-9-yl)nonylamino)-1-hydroxyethyl)-4-hydroxybenzo[d]thiazol-2(3H)-one]: in experiment [1], the EC50 was 20 nM and the “β2 Intrinsic activity” value amounted to 0.9. The IC50 in experiment [2] was 7.94 nM. Also, in experiment [3], the activation at 1 µM stood at 98%. The inhibition at 1 µM in experiment [4] came out at 99%.

Regarding `O=C(c1ccc2occc2c1)N1CCOC2(CCN(CCCCCCCCCNC[C@H](O)c3ccc(O)c4[nH]c(=O)sc34)CC2)C1` [Example 209, (R)-7-(2-(9-(4-(benzofuran-5-carbonyl)-1-oxa-4,9-diazaspiro[5.5]undecan-9-yl)nonylamino)-1-hydroxyethyl)-4-hydroxybenzo[d]thiazol-2(3H)-one], in experiment [1], the EC50 is 25.1 nM and the “β2 Intrinsic activity” value is recorded as 0.9. In experiment [2], the IC50 was 2 nM. Moreover, in experiment [3], the activation at 1 µM was found to be 84%. In experiment [4], testing at 1 µM gave an inhibition of 99%.

With `Cc1nc(CC(=O)N2CCOC3(CCN(CCCCCCCCCNC[C@H](O)c4ccc(O)c5[nH]c(=O)sc45)CC3)C2)cs1` [Example 210, (R)-4-hydroxy-7-(1-hydroxy-2-(9-(4-(2-(2-methylthiazol-4-yl)acetyl)-1-oxa-4,9-diazaspiro[5.5]undecan-9-yl)nonylamino)ethyl)benzo[d]thiazol-2(3H)-one], in experiment [1], the EC50 was 15.8 nM and the “β2 Intrinsic activity” value was 0.8. Further, in experiment [2], the IC50 was 7.94 nM. Further, the activation at 1 µM in experiment [3] is 92%. For the same compound, 1 µM produced 95% inhibition in experiment [4].

In the case of `Cc1csc(C(=O)N2CCOC3(CCN(CCCCCCCCCNC[C@H](O)c4ccc(O)c5[nH]c(=O)sc45)CC3)C2)c1` [Example 213, (R)-4-hydroxy-7-(1-hydroxy-2-(9-(4-(4-methylthiophene-2-carbonyl)-1-oxa-4,9-diazaspiro[5.5]undecan-9-yl)nonylamino)ethyl)benzo[d]thiazol-2(3H)-one], in experiment [1], the EC50 is 12.6 nM and the “β2 Intrinsic activity” value is 0.8. In experiment [2], the IC50 is 0.794 nM. Also, the activation at 1 µM in experiment [3] worked out at 87%. In experiment [4], this compound gave an inhibition at 1 µM of 99%.
